This is an account of results in PubChem BioAssay (NCI).

Among the test systems are KM12 colon; UO-31 renal; SR leukemia; PC-3 prostate; MCF7 breast; SF-539 CNS; ACHN renal; HS 578T breast; SK-MEL-2 melanoma; MALME-3M melanoma.
Common to all, as to test: growth of human tumour cells (NCI), 48 h

Molecules are shown by their SMILES.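 1) Cells in 96-well plates. 2) Compound, 48 h, 5 concentrations. 3) Linear interpolation between surrounding doses. 4) Unreached endpoint = highest concentration. Abbreviation: GI50, concentration required for 50% inhibition of growth. The concentration for full growth arrest is given as TGI.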 Some results are limits rather than exact numbers.

Regarding `N#Cc1nc2c(S(=O)(=O)c3ccccc3)c(N)n(Cc3cccnc3)c2nc1C#N`, the GI50 with KM12 colon is more than 100 µM; in the assay with UO-31 renal, 13.5 µM; with SR leukemia, 8.59 µM; in the assay on PC-3 prostate, more than 100 µM; with MCF7 breast, 13.1 µM; with SF-539 CNS, 3.25 µM. Also, the GI50 was 80.7 µM in the assay on ACHN renal, 1.81 µM in the assay with HS 578T breast, more than 100 µM in the assay on SK-MEL-2 melanoma and 3.7 µM in the assay with MALME-3M melanoma. Besides, the TGI with KM12 colon was more than 100 µM; with UO-31 renal, more than 100 µM; in the assay with SR leukemia it was more than 100 µM; in the assay on PC-3 prostate, more than 100 µM; in the assay with MCF7 breast it was more than 100 µM; with SF-539 CNS, 23.7 µM. The TGI was more than 100 µM in the assay on ACHN renal, 5.52 µM with HS 578T breast, more than 100 µM in the assay on SK-MEL-2 melanoma and 27.3 µM in the assay with MALME-3M melanoma.
`CC1(C)N=C(N)N=C(N)N1c1ccc(OCCCCOc2ccc(S(=O)(=O)F)cc2)c(Cl)c1`: the GI50 in the assay on KM12 colon was 0.279 µM; in the assay with UO-31 renal it was 24.4 µM; in the assay with SR leukemia, 0.0445 µM; in the assay on PC-3 prostate it was 0.064 µM; with MCF7 breast, 0.13 µM; in the assay on SF-539 CNS, 0.398 µM. Besides, the GI50 with ACHN renal was 1.68 µM; in the assay on HS 578T breast it was 4.85 µM; in the assay on SK-MEL-2 melanoma, 2.89 µM; in the assay with MALME-3M melanoma it was 2.38 µM. The TGI in the assay with KM12 colon was 11.7 µM; in the assay on UO-31 renal it was more than 100 µM; in the assay on SR leukemia it was 26.9 µM; in the assay with PC-3 prostate, 11 µM; in the assay on MCF7 breast it was 13 µM; in the assay with SF-539 CNS, 8.39 µM. Further, the TGI in the assay on ACHN renal is more than 100 µM; in the assay on HS 578T breast it was 34.3 µM; in the assay with SK-MEL-2 melanoma it was 22.1 µM; in the assay with MALME-3M melanoma, 37.7 µM.
For the compound `O=C(/C=C/c1cccnc1)NCCCCC1CCCN(C(=O)c2ccccc2)C1` (stereo unspecified), the GI50 is less than 0.0357 µM in the assay on KM12 colon; more than 62.8 µM in the assay on UO-31 renal; 0.0617 µM with SR leukemia; 1.47 µM in the assay with PC-3 prostate; 37.5 µM in the assay with MCF7 breast; less than 0.01 µM with SF-539 CNS. The GI50 in the assay with ACHN renal is more than 91 µM; with HS 578T breast it was 4.45 µM; with SK-MEL-2 melanoma it was 5.71 µM; with MALME-3M melanoma, more than 44.5 µM. The TGI in the assay on KM12 colon, in the assay on UO-31 renal, in the assay on SR leukemia, with PC-3 prostate, in the assay with MCF7 breast and in the assay on SF-539 CNS was more than 100 µM each time. In addition, the TGI in the assay on ACHN renal, with HS 578T breast, in the assay on SK-MEL-2 melanoma and in the assay with MALME-3M melanoma was more than 100 µM each time.
Regarding `CCn1c(CN2CCN(Cc3ccccc3)CC2)nc2cc(NC(=O)c3cccs3)ccc21`, the GI50 is 14.8 µM in the assay with KM12 colon; 15.3 µM in the assay on UO-31 renal; 12.6 µM in the assay on SR leukemia; 20.8 µM in the assay on PC-3 prostate; 19.5 µM with MCF7 breast; 14.6 µM with SF-539 CNS. Besides, the GI50 is 18.7 µM in the assay on ACHN renal, 16.9 µM with HS 578T breast, 20 µM with SK-MEL-2 melanoma and 18.6 µM with MALME-3M melanoma. The TGI is 32 µM in the assay on KM12 colon; 42.6 µM with UO-31 renal; 39.1 µM in the assay on SR leukemia; more than 100 µM with PC-3 prostate; 59.9 µM in the assay on MCF7 breast; 28.4 µM with SF-539 CNS. Also, the TGI was found to be 75.4 µM with ACHN renal, 48.8 µM with HS 578T breast, 39.3 µM with SK-MEL-2 melanoma and 37.3 µM with MALME-3M melanoma.
Turning to `COc1ccccc1CCN=C1NC(=O)/C(=C/c2ccc3ncccc3c2)S1`, the GI50 in the assay on KM12 colon is 3.34 µM; in the assay with UO-31 renal, 5.25 µM; in the assay with SR leukemia it was 0.743 µM; with PC-3 prostate it was 4.54 µM; in the assay with MCF7 breast, 1.63 µM; with SF-539 CNS, 4.48 µM. Also, the GI50 in the assay on ACHN renal is 5.98 µM; in the assay with HS 578T breast, 7.39 µM; in the assay with SK-MEL-2 melanoma, 6.57 µM; in the assay with MALME-3M melanoma, 7.44 µM. For the same compound, the TGI with KM12 colon is more than 25 µM; in the assay with UO-31 renal, 16.3 µM; in the assay on SR leukemia it was 3.02 µM; in the assay with PC-3 prostate it was more than 25 µM; in the assay with MCF7 breast, more than 23.9 µM; in the assay on SF-539 CNS, 15.7 µM. The TGI in the assay with ACHN renal is 24.5 µM; with HS 578T breast, more than 18.1 µM; in the assay on SK-MEL-2 melanoma it was 13.5 µM; in the assay with MALME-3M melanoma, more than 23 µM.
As for `O=C1C(Cl)=C(Nc2cccc(Cl)c2)C(=O)N1Cc1ccccc1Cl`, the GI50 in the assay on KM12 colon was 10.7 µM; in the assay on UO-31 renal it was 1.47 µM; with SR leukemia, 0.26 µM; in the assay with PC-3 prostate it was 4.8 µM; in the assay with MCF7 breast, 5.18 µM; in the assay on SF-539 CNS, 3.8 µM. In addition, the GI50 with ACHN renal is 4.36 µM; in the assay with HS 578T breast, 9.4 µM; in the assay on SK-MEL-2 melanoma it was 4.33 µM. Moreover, the TGI in the assay on KM12 colon amounted to 49.6 µM; with UO-31 renal it was 5.01 µM; in the assay with SR leukemia, 0.645 µM; with PC-3 prostate, 21.3 µM; with MCF7 breast, 21.2 µM; with SF-539 CNS, 15 µM. In addition, the TGI in the assay on ACHN renal amounted to 17.1 µM; in the assay with HS 578T breast, 56.4 µM; in the assay with SK-MEL-2 melanoma it was 23.1 µM.
For the compound `COc1ccc(/C=C/C(=O)c2ccc(SC)cc2)cc1OC`, the GI50 was 3.9 µM with KM12 colon; 13.3 µM in the assay with UO-31 renal; 3.06 µM in the assay on SR leukemia; 11.5 µM in the assay with PC-3 prostate; more than 100 µM in the assay with MCF7 breast; 12 µM with SF-539 CNS. Also, the GI50 in the assay on ACHN renal is 11.7 µM; in the assay on HS 578T breast, 16.6 µM; in the assay with SK-MEL-2 melanoma it was 19.4 µM. Further, the TGI with KM12 colon is 22.6 µM; in the assay with UO-31 renal, 30.2 µM; in the assay with SR leukemia it was 42.9 µM; in the assay with PC-3 prostate it was 25.6 µM; with MCF7 breast it was more than 100 µM; with SF-539 CNS, 27.3 µM. In addition, the TGI was 27.6 µM in the assay on ACHN renal, 99.3 µM in the assay on HS 578T breast and 42.6 µM with SK-MEL-2 melanoma.
